Reference: patent US7205304B2, “Sulfonyl-Derivatives as novel inhibitors of histone deacetylase” (Janssen Pharmaceutica N.V., priority 2002, dated 2007)
≈ marks a conversion by molar mass, not a printed value.

Assays:
[1] = molecular target: histone deacetylase (HeLa nuclear extracts); test: In vitro assay for inhibition of histone deacetylase; type: biochemical; conditions: [3H]acetylated histone H4 peptide substrate
Protocol: The in vitro assay for inhibition of histone deacetylase (see example C.1) measures the inhibition of HDAC enzymatic activity obtained with the compounds of formula (I).
HeLa nuclear extracts (supplier: Biomol) were incubated at 60 μg/ml with 2×10^−8 M of radiolabeled peptide substrate. As a substrate for measuring HDAC activity a synthetic peptide, i.e. the amino acids 14–21 of histone H4, was used. The substrate is biotinylated at the NH2-terminal part with a 6-aminohexanoic acid spacer, and is protected at the COOH-terminal part by an amide group and specifically [^3H]acetylated at lysine 16. The substrate, biotin-(6-aminohexanoic)Gly-Ala-([^3H]-acetyl-Lys-Arg-His-Arg-Lys-Val-NH2), was added in a buffer containing 25 mM Hepes, 1 M sucrose, 0.1 mg/ml BSA and 0.01% Triton X-100 at pH 7.4. After 30 min the deacetylation reaction was terminated by the addition of HCl and acetic acid. (final concentration 0.035 mM and 3.8 mM respectively). After stopping the reaction, the free ^3H-acetate was extracted with ethylacetate. After mixing and centrifugation, the radioactivity in an aliquot of the upper (organic) phase was counted in a β-counter.
For each experiment, controls (containing HeLa nuclear extract and DMSO without compound), a blank incubation (containing DMSO but no HeLa nuclear extract or compound) and samples (containing compound dissolved in DMSO and HeLa nuclear extract) were run in parallel. In first instance, compounds were tested at a concentration of 10^−5M. […] In each test the blank value was substracted from both the control and the sample values. The control sample represented 100% of substrate deactylation. For each sample the radioactivity was expressed as a percentage of the mean value of the controls. […] Herein the effects of test compounds are expressed as pIC50 (the negative log value of the IC50-value).

[2] = tested on: A2780 ovarian carcinoma cells; test: Antiproliferative activity on A2780 cells (MTT); type: cell-based, human; conditions: Homo sapiens, A2780, 96 h, four days of incubation, read-out: Cellular activity pIC50 (converted)
Protocol: Cellular activity of the compounds of formula (I) was determined on A2780 tumour cells using a colorimetric assay for cell toxicity or survival (Mosmann Tim, Journal of Immunological Methods 65: 55–63, 1983)(see example C.2).
All compounds tested were dissolved in DMSO and further dilutions were made in culture medium. Final DMSO concentrations never exceeded 0.1% (v/v) in cell proliferation assays. Controls contained A2780 cells and DMSO without compound and blanks contained DMSO but no cells. MTT was dissolved at 5 mg/ml in PBS. A glycine buffer comprised of 0.1 M glycine and 0.1 M NaCl buffered to pH 10.5 with NaOH (1 N) was prepared (all reagents were from Merck).
The human A2780 ovarian carcinoma cells (a kind gift from Dr. T. C. Hamilton [Fox Chase Cancer Centre, Pennsylvania, USA]) were cultured in RPMI 1640 medium supplemented with 2 mM L-glutamine, 50 μg/ml gentamicin and 10% fetal calf serum. Cells were routinely kept as monolayer cultures at 37° C. in a humidified 5% CO2 atmosphere. Cells were passaged once a week using a trypsin/EDTA solution at a split ratio of 1:40. All media and supplements were obtained from Life Technologies. Cells were free of mycoplasma contamination as determined using the Gen-Probe Mycoplasma Tissue Culture kit (supplier: BioMérieux).
Cells were seeded in NUNC™ 96-well culture plates (Supplier: Life Technologies) and allowed to adhere to the plastic overnight. Densities used for plating were 1500 cells per well in a total volume of 200 μl medium. After cell adhesion to the plates, medium was changed and drugs and/or solvents were added to a final volume of 200 μl. Following four days of incubation, medium was replaced by 200 μl fresh medium and cell density and viability was assessed using an MTT-based assay. To each well, 25 μl MTT solution was added and the cells were further incubated for 2 hours at 37° C. The medium was then carefully aspirated and the blue MTT-formazan product was solubilized by addition of 25 μl glycine buffer followed by 100 μl of DMSO. […] Within an experiment, the results for each experimental condition are the mean of 3 replicate wells. For initial screening purposes, compounds were tested at a single fixed concentration of 10^−6 M. For active compounds, the experiments were repeated to establish full concentration-response curves. For each experiment, controls (containing no drug) and a blank incubation (containing no cells or drugs) were run in parallel. The blank value was subtracted from all control and sample values. For each sample, the mean value for cell growth (in absorbance units) was expressed as a percentage of the mean value for cell growth of the control. […] Herein the effects of test compounds are expressed as pIC50 (the negative log value of the IC50-value).

[3] = Kinetic solubility in aqueous media (nephelometry); type: physicochemical; conditions: phosphate citrate buffer, pH 7.4, aqueous buffer, kinetic from dmso stock, phosphate citrate buffer pH 7.4, turbidity of three dilution steps; read-out: Solubility Score
Protocol: Kinetic solubility in aqueous media measures the ability of a compound to stay in aqueous solution upon dilution (see example C.3).
DMSO-stock solutions are diluted with a single aqueous buffer solvent in 3 consecutive steps. For every dilution turbidity is measured with a nephelometer.
In the first dilution step, 10 μl of a concentrated stock-solution of the active compound, solubilized in DMSO (5 mM), was added to 100 μl phosphate citrate buffer pH 7.4 and mixed. In the second dilution step, an aliquot (20 μl) of the first dilution step was further dispensed in 100 μl phosphate citrate buffer pH 7.4 and mixed. Finally, in the third dilution step, a sample (20 μl) of the second dilution step was further diluted in 100 μl phosphate citrate buffer pH 7.4 and mixed. All dilutions were performed in 96-well plates. Immediately after the last dilution step the turbidity of the three consecutive dilution steps were measured with a nephelometer. Dilution was done in triplicate for each compound to exclude occasional errors. Based on the turbidity measurements a ranking is performed into 3 classes. Compounds with high solubility obtained a score of 3 and for this compounds the first dilution is clear. Compounds with medium solubility obtained a score of 2. For these compounds the first dilution is unclear and the second dilution is clear. […] The solubility of 112 compounds was measured.

| SMILES | Enzyme activity pIC50 [1] | IC50 [2] [nM] | solubility [3] [µM] |
| --- | --- | --- | --- |
| Cc1noc(C)c1-c1ccc(S(=O)(=O)N2CCN(c3ncc(C(=O)NO)cn3)CC2)cc1 [Compound 112] | 7.54 | 330 | > 454 |
| COc1ccc(S(=O)(=O)N2CCN(c3ncc(C(=O)NO)cn3)CC2)cc1OC [Compound 96] | 7.49 | 335 | > 454 |
| O=C(NO)c1cnc(N2CCN(S(=O)(=O)c3ccc(/C=C/c4ccccc4)cc3)CC2)nc1 [Compound 109] | 7.176 | 258 | 75.8 to 454 (≈ 35.3 to 212 µg/mL) |
| O=C(NO)c1ccc(N2CCN(S(=O)(=O)c3ccc4ccccc4c3)CC2)cc1 [Compound 2] | 7.147 | 1940 | < 75.8 |
| CS(=O)(=O)c1ccccc1S(=O)(=O)N1CCN(c2ccc(C(=O)NO)cc2)CC1 [Compound 60] | 6.247 | 4530 | > 454 |
| O=C(NO)c1ccc(N2CCN(S(=O)(=O)c3ccc(Cl)c(Cl)c3)CC2)cc1 [Compound 80] | 5.961 | 1230 | < 75.8 |
| CN(C)c1cccc(-c2ccc(S(=O)(=O)N3CCN(c4ncc(C(=O)NO)cn4)CC3)cc2)c1 [Compound 135] | 7.631 | 287 | > 454 |
| COc1cncc(-c2ccc(S(=O)(=O)N3CCN(c4ncc(C(=O)NO)cn4)CC3)cc2)c1 [Compound 138] | 7.545 | 249 | 75.8 to 454 (≈ 35.7 to 214 µg/mL) |
| O=C(NO)c1cnc(N2CCN(S(=O)(=O)c3ccc(-c4ccoc4)cc3)CC2)nc1 [Compound 100] | 8.171 | 57.9 | 75.8 to 454 (≈ 32.6 to 195 µg/mL) |
| O=C(NO)c1ccc(N2CCN(S(=O)(=O)c3ccc(Oc4ccccc4)cc3)CC2)cc1 [Compound 82] | 5.821 | 1080 | > 454 |
| CN1CCN(Cc2sccc2-c2ccc(S(=O)(=O)N3CCN(c4ncc(C(=O)NO)cn4)CC3)cc2)CC1 [Compound 144] | 8.428 | 81.5 | > 454 |
| O=C(NO)c1ccc(N2CCN(S(=O)(=O)c3ccc(Br)cc3)CC2)cc1 [Compound 78] | 6.306 | 1250 | 75.8 to 454 (≈ 33.4 to 200 µg/mL) |
| Cc1cc(C)cc(-c2ccc(S(=O)(=O)N3CCN(c4ncc(C(=O)NO)cn4)CC3)cc2)c1 [Compound 136] | 7.288 | 513 | < 75.8 |
| Cn1nc(-c2ccc(S(=O)(=O)N3CCN(c4ncc(C(=O)NO)cn4)CC3)s2)cc1C(F)(F)F [Compound 93] | 7.464 | 455 | > 454 |
| O=C(NO)c1cnc(N2CCN(S(=O)(=O)c3ccc(-c4ccc(OC(F)(F)F)cc4)cc3)CC2)nc1 [Compound 98] | 7.054 | 356 | 75.8 to 454 (≈ 39.7 to 238 µg/mL) |
| O=C(NO)c1ccc(N2CCN(S(=O)(=O)c3cccc4ccccc34)CC2)cc1 [Compound 81] | 6.873 | 1300 | < 75.8 |
| O=C(NO)c1ccc(NC(=O)N2CCN(S(=O)(=O)c3ccc4ccccc4c3)CC2)cc1 [Compound 8] | 7.587 | 2280 | > 454 |
| O=C(NO)c1cnc(N2CCN(S(=O)(=O)c3ccc(-c4ccccc4C(F)(F)F)cc3)CC2)nc1 [Compound 110] | 7.713 | 445 | 75.8 to 454 (≈ 38.5 to 231 µg/mL) |
| O=C(NO)c1cnc(N2CCN(S(=O)(=O)c3ccc(-c4ccccc4OCCN4CCCC4)cc3)CC2)nc1 [Compound 125] | 8.659 | 93.1 | 75.8 to 454 (≈ 41.9 to 251 µg/mL) |
| CCCc1ccc(S(=O)(=O)N2CCN(c3ccc(C(=O)NO)cc3)CC2)cc1 [Compound 63] | 6.215 | 1860 | < 75.8 |
| O=C(NO)c1cnc(N2CCN(S(=O)(=O)c3ccc(-c4cccc5c4oc4ccccc45)cc3)CC2)nc1 [Compound 131] | 6.058 | 546 | 75.8 to 454 (≈ 40.1 to 241 µg/mL) |

More lines, now with the values ahead:

| Enzyme activity pIC50 [1] | IC50 [2] [nM] | solubility [3] [µM] | SMILES |
| --- | --- | --- | --- |
| 8.869 | 64 | < 75.8 | CN(C)CCCOc1ccccc1-c1ccc(S(=O)(=O)N2CCN(c3ncc(C(=O)NO)cn3)CC2)cc1 [Compound 154] |
| 8.175 | 144 | 75.8 to 454 (≈ 43.4 to 260 µg/mL) | COC1CCN(Cc2sccc2-c2ccc(S(=O)(=O)N3CCN(c4ncc(C(=O)NO)cn4)CC3)cc2)CC1 [Compound 149] |
| 7.098 | 119 | > 454 | CN(C)c1ccc2cc(S(=O)(=O)N3CCN(c4ncc(C(=O)NO)cn4)CC3)ccc2c1 [Compound 181] |
| 8.61 | 95.9 | > 454 | CN(C)CCN(C)Cc1ccccc1-c1ccc(S(=O)(=O)N2CCN(c3ncc(C(=O)NO)cn3)CC2)cc1 [Compound 159] |
| 8.566 | 64.4 | > 454 | CN(C)CCc1cccc(-c2ccc(S(=O)(=O)N3CCN(c4ncc(C(=O)NO)cn4)CC3)cc2)c1 [Compound 172] |
| 6.428 | 308 | < 75.8 | O=C(NO)c1cnc(N2CCN(S(=O)(=O)c3ccc(-c4ccc(Cl)c(Cl)c4)cc3)CC2)nc1 [Compound 177] |
| 7.22 | 62.8 | < 75.8 | O=C(NO)c1cnc(N2CCN(S(=O)(=O)c3ccc(-c4ccc(Cl)cc4)cc3)CC2)nc1 [Compound 184] |
| 6.417 | 160 | < 75.8 | O=C(NO)c1cnc(N2CCN(S(=O)(=O)c3ccc(-c4ccc(C(F)(F)F)cc4)cc3)CC2)nc1 [Compound 185] |
| 6.765 | 693 | < 75.8 | CN(C)S(=O)(=O)N1CCN(Cc2sccc2-c2ccc(S(=O)(=O)N3CCN(c4ncc(C(=O)NO)cn4)CC3)cc2)CC1 [Compound 147] |
| 8.766 | 63.8 | > 454 | CN(C)Cc1cccc(-c2ccc(S(=O)(=O)N3CCN(c4ncc(C(=O)NO)cn4)CC3)cc2)c1 [Compound 168] |
